Experimental data as given in patent US7326718B2, “8-Substituted imidazopyridines” (Altana Pharma AG, priority 2002, dated 2008).

Experiments:
[1] = tested on: pentagastrin-stimulated acid secretion of the perfused rat stomach; test: Secretion-inhibiting action on the perfused rat stomach (pentagastrin-stimulated acid secretion, intraduodenal administration in vivo); settings: dose 1 μmol/kg i.d., anaesthetized female CD rat, pentagastrin-stimulated (1 μg/kg i.v. infusion)
From the text: Testing of the Secretion-Inhibiting Action on the Perfused Rat Stomach
In Table A which follows, the influence of the compounds according to the invention on the pentagastrin-stimulated acid secretion of the perfused rat stomach after intraduodenal administration in vivo is shown.
The abdomen of anaesthetized rats (CD rat, female, 200-250 g; 1.5 g/kg i.m. urethane) was opened after tracheotomy by a median upper abdominal incision and a PVC catheter was fixed transorally in the oesophagus and another via the pylorus such that the ends of the tubes just projected into the gastric lumen. The catheter leading from the pylorus led outward into the right abdominal wall through a side opening.
After thorough rinsing (about 50-100 ml), warm (37° C.) physiological NaCl solution was continuously passed through the stomach (0.5 ml/min, ph 6.8-6.9; Braun-Unita I). The pH (pH meter 632, glass electrode EA 147; φ=5 mm, Metrohm) and, by titration with a freshly prepared 0.01N NaOH solution to ph 7 (Dosimat 665 Metrohm), the secreted HCl were determined in the effluent in each case collected at an interval of 15 minutes.
The gastric secretion was stimulated by continuous infusion of 1 μg/kg (=1.65 ml/h) of i.v. pentagastrin (left femoral vein) about 30 min after the end of the operation (i.e. after determination of 2 preliminary fractions). The substances to be tested were administered intraduodenally in a 2.5 ml/kg liquid volume 60 min after the start of the continuous pentagastrin infusion.
The body temperature of the animals was kept at a constant 37.8-38° C. by infrared irradiation and heat pads (automatic, stepless control by means of a rectal temperature sensor).

Structure (SMILES) | Inhibition of acid secretion (%) [1] [%] | melting point [°C]
Cc1nc2c(O[C@@H]3c4ccccc4C[C@H]3O)cc(C(=O)N(C)C)cn2c1C (relative stereo) [Example 9, 8-(trans-2,3-Dihydro-2-hydroxy-1-indenyloxy)-6-(N,N-dimethylamino-carbonyl)-2,3-dimethyl-imidazo[1,2-a]pyridine] | >30 | 
COc1cccc2c1[C@@H](Oc1cc(C(=O)N(C)C)cn3c(C)c(C)nc13)[C@H](O)C2 (relative stereo) [Example 16, 8-(trans-2,3-Dihydro-2-hydroxy-7-methoxy-1-indenyloxy)-6-(N,N-dimethylamino-carbonyl)-2,3-dimethyl-imidazo[1,2-a]pyridine] | >30 | 
COCc1cc(O[C@@H]2c3ccccc3C[C@H]2O)c2nc(C)c(C)n2c1 (relative stereo) [Example 11, 8-(trans-2,3-Dihydro-2-hydroxy-1-indenyloxy)-6-methoxymethyl-2,3-dimethyl-imidazo[1,2-a]pyridine] | >30 | 142 to 143
Cc1nc2c(N[C@@H]3c4ccccc4C[C@H]3O)cc(C(=O)O)cn2c1C (relative stereo) [Example 2, 8-(trans-2,3-Dihydro-2-hydroxy-1-indenylamino)-2,3-dimethyl-imidazo[1,2-a]pyridine-6-carboxylic acid] |  | 246 to 249
COC(=O)c1cc(N[C@@H]2c3ccccc3C[C@H]2O)c2nc(C)c(C)n2c1 (relative stereo) [Example 1, Methyl 8-(trans-2,3-dihydro-2-hydroxy-1-indenylamino)-2,3-dimethyl-imidazo[1,2-a]pyridine-6-carboxylate] |  | 261 to 262
Cc1nc2c(O[C@H]3c4ccccc4C[C@@H]3O)cc(C(=O)N(C)C)cn2c1C [Example 14, 8-[(1S,2S)-2,3-Dihydro-2-hydroxy-1-indenyloxy)-6-(N,N-dimethylamino-carbonyl)-2,3-dimethyl-imidazo[1,2-a]pyridine] | >30 | 
Cc1nc2c(O[C@@H]3c4ccccc4CC[C@H]3O)cc(C(=O)N(C)C)cn2c1C.Cl (relative stereo) [Example 15, 6-(N,N-Dimethylamino-carbonyl)-2,3-dimethyl-8-(trans-1,2,3,4-tetrahydro-2-hydroxy-1-naphthalenyloxy)-imidazo[1,2-a]pyridine hydrochloride] | >30 | 129
Cc1cccc2c1[C@@H](Oc1cc(C(=O)N(C)C)cn3c(C)c(C)nc13)[C@H](O)C2 [Example 17] | >30 | 
Cc1nc2c(O[C@@H]3c4ccccc4C[C@H]3O)cc(C(=O)O)cn2c1C (relative stereo) [Example 8, 8-(trans-2,3-Dihydro-2-hydroxy-1-indenyloxy)-2,3-dimethyl-imidazo[1,2-a]pyridine-6-carboxylic acid] |  | 229 to 231
